Measured values published in US7671077B2, “Neuroprotective small organic molecules, compositions and uses related thereto” (priority 2004, dated 2010).
Entries after “also recorded” stand apart in the source; their conditions may differ.

Experiments:
TH^+ cells = assay: Staining for apoptotic DA neurons (TH / Hoechst 33258); type: cell-based, rat; details: 2.5 μM added at plating; DIV 13
Experimental: (§1) Primary midbrain cultures were prepared from rat embryo ventral mesencephalon as described previously by Lin et al (1994). In brief, rostral mesencephalic tegmentum of embryonic day 16 rat embryos was collected in DMEM/F12 (Hyclone SH30023.01) containing 2 mM glutamine on ice, The tissue was treated with 0.1% trypsin in Hanks' balanced salt solution (HBSS, Gibco 14175-095) for 15 min at 37° C. and dissociated mechanically by mild trituration with a fire-polished glass pipet in growth medium plus 2% heat-inactivated fetal bovine serum (FBS). […]
To measure the percent of DA neurons undergoing apoptosis after different treatments, DIV-13 cultures (which were medium changed twice on DIV 5 and 9) were first stained with an anti-TH antibody and with FITC-conjugated goat anti-mouse secondary antibody (1:200, Jackson Lab) for 1 h at room temperature to label DA neurons. […] Cells were viewed under an inverted fluorescence microscope (Olympus) equipped with appropriate filters. Healthy and apoptotic TH^+ cells TH^+ cell numbers were counted in the entire area of each well by an observer who is blinded to the treatment.

[1] = tested on: midbrain dopaminergic neurons; assay: Dopamine (DA) uptake assay in primary midbrain cultures; type: cell-based, rat; details: for activity at 2.5 µM: compound concentration 2.5 μM; for activity at 1.25 µM: compound concentration 1.25 μM
Experimental: (§2) Primary midbrain cultures were prepared from rat embryo ventral mesencephalon as described previously by Lin et al (1994). In brief, rostral mesencephalic tegmentum of embryonic day 16 rat embryos was collected in DMEM/F12 (Hyclone SH30023.01) containing 2 mM glutamine on ice, The tissue was treated with 0.1% trypsin in Hanks' balanced salt solution (HBSS, Gibco 14175-095) for 15 min at 37° C. and dissociated mechanically by mild trituration with a fire-polished glass pipet in growth medium plus 2% heat-inactivated fetal bovine serum (FBS). The growth medium consisted of equal volumes of Dulbecco's minimal essential medium DMEM (Gibco 12100-046) and HAM's F12 nutrient mixture (Gibco 21700-075) supplemented with 33 mM glucose, 13 mM sodium bicarbonate, 5 mM HEPES, 2 mM glutamine, 25 μg/ml insulin, 100 μg/ml transferrin, 60 μM putrescine, 20 nM progesterone, 30 nM sodium selenite, 5 U/ml penicillin G and 5 μg/ml streptomycin. 24-well tissue culture plate was coated by adding 15 μg/ml poly-1-ornithine hydrobromide solution at 0.5 ml/well, incubated at room temperature for 1 hr. The coating solution was removed and the well washed 3 times with distilled water and one wash with HBSS. The dissociated cells were plated onto polyornithine-coated wells at 250,000-350,000 trypan blue-excluding viable cells per well in 500 μl of above medium containing 1% FBS. After 3 h when most of the cells had adhered to the bottom of the well, the medium was replaced with 500 μl of fresh medium without FBS. A serial dilution of the sample to be assayed for trophic activity was added to each well in duplicate at the time of medium change or within 24 h thereafter. Unless otherwise stated, cultures were incubated at 37° C. without any further medium change up to 7 days. Primary hindbrain cultures were prepared as described for the midbrain cultures except that the rostral raphe region (instead of the rostral mesencephalon) was dissected and trypsinized for 20 (instead of 15) min.
[^3H]DA uptake was measured in cultures at day 7, and all the solutions were maintained at 37° C. The growth medium was removed, and the cultures were rinsed twice with 0.25 ml of uptake buffer, which consists of HBSS (Gibco 11201-092) supplemented with 28 mM glucose, 15 mM HEPES, 1 mM ascorbic acid (an antioxidant), and […] pargyline (a monoamine oxidase inhibitor). The cultures were then incubated with 0.25 ml of fresh uptake buffer containing 50 nM [^3H]DA (NEN/DuPont) for 20 min at 37° C. [^3H]DA uptake was stopped by removing the incubation mixture, and cells were then washed twice with 0.5 ml of the uptake buffer at room temperature. To release [^3H]DA from the cells, the cultures were lysed with 0.2 ml of 0.1 N NaOH for 1 h at room temperature, the lysate was then added to 1 ml of Microscint-20 (Packard 6013621), and counted for radioactivity in a microplate scintillation counter (Packard TopCount, NXT). Background values were obtained by adding to the uptake buffer 0.5 mM GBR-12909, a specific inhibitor of the high-affinity uptake pump of the dopaminergic neurons, and were usually <5% of the ^3H uptake in untreated control cultures. Forskolin (Fk, 25 μM) was employed as a positive control.

serotonergic neurons = assay: Serotonin (5-HT) uptake assay in midbrain cultures; type: cell-based, rat; details: midbrain culture, DIV 8, concentration range that increased DA uptake
Experimental: as §2, with “After 3 h when most of the cells had adhered to the bottom of the well, the medium was replaced with 500 μl of fresh medium without FBS. A serial dilution of the sample to be assayed for trophic activity was added to each well in duplicate at the time of medium change or within 24 h thereafter. Unless otherwise stated, cultures were incubated at 37° C. without any further medium change up to 7 days. Primary hindbrain cultures were prepared as described for the midbrain cultures except that the rostral raphe region (instead of the rostral mesencephalon) was dissected and trypsinized for 20 (instead of 15) min.” left out

GABA-containing neurons = assay: GABA uptake assay in midbrain cultures; type: cell-based, rat; details: midbrain culture, DIV 8, concentration range that increased DA uptake
Experimental: as §2, with “After 3 h when most of the cells had adhered to the bottom of the well, the medium was replaced with 500 μl of fresh medium without FBS. A serial dilution of the sample to be assayed for trophic activity was added to each well in duplicate at the time of medium change or within 24 h thereafter. Unless otherwise stated, cultures were incubated at 37° C. without any further medium change up to 7 days. Primary hindbrain cultures were prepared as described for the midbrain cultures except that the rostral raphe region (instead of the rostral mesencephalon) was dissected and trypsinized for 20 (instead of 15) min.” left out

islet-1^+ motoneurons = assay: islet-1 immunostaining, motoneuron count in midbrain cultures; type: cell-based, rat; details: 2.5 μM; DIV 1, 2 and 3
Experimental: as §1
(§3) The primary antibodies were: anti-TH monoclonal (1:400, Boehringer-Mannheim); anti-GFAP polyclonal (1:200, DAKO); anti-NSE polyclonal (1:2000, Polysciences Inc.); anti-tryptophan hydroxylase polyclonal (TPH) (1:500, Eugene Tech) and anti-islet-1 monoclonal (1:100, Developmental Studies Hybridoma Bank). […] Process-bearing TH-positive cells were counted at 100× magnification in consecutive fields covering the whole 16-mm-diameter culture well. GFAP-positive cells were counted in half the culture well. NSE-positive cells were counted in 3 photographed fields.

GFAP-positive cells = assay: GFAP immunostaining, astrocyte count in midbrain cultures; type: cell-based, rat; details: midbrain culture, DIV 7
Experimental: as §1, §3

TPH^+ cells = assay: TPH immunostaining in primary hindbrain cultures; type: cell-based, rat; details: hindbrain culture, DIV 13
TH-positive neurons = assay: TH immunostaining and count of TH-positive neurons in midbrain cultures; type: cell-based, rat
Experimental: as §1, §3

[2] = tested on: serotonergic neurons of hindbrain culture; assay: Serotonin (5-HT) uptake assay in primary hindbrain cultures; type: cell-based, rat
NSE-positive cells = assay: NSE immunostaining, total neuron count in midbrain cultures; type: cell-based, rat; details: 2.5 μM; DIV 0, 5 or 7; versus untreated
Experimental: as §1, §3

TH^+ neurons = assay: MPP^+ induced neurotoxicity in midbrain cultures; type: cell-based, rat; details: 2 μM MPP^+ for 36 h; 2.5 μM compound; control cultures lost 48%
Experimental: FIG. 34 depicts mechanism of compound A effect in midbrain cultures. 2.5 μM compound A was added at the time of plating. (A) Compound A reduces the rate of apoptosis of TH-positive cells. *p<0.05 versus Con, Student's t test. (B) Compound A protects TH-positive cells from MPP^+ induced neurotoxicity. Cultures at DIV 4 were treated with 2 μM MPP^+ (open bars) for 36 hrs, and processed for TH staining. *p<0.05 versus corresponding cultures not treated with MPP^+ (solid bars). #p<0.05 versus corresponding cultures without Compound A, Student's t test. Data represent averages (n=3) with SD shown in error bars.
Primary midbrain cultures were prepared from rat embryo ventral mesencephalon as described previously by Lin et al (1994). […]
as §3, with “fields. […]” for “fields.”

[3] = tested on: midbrain dopaminergic neurons; details: Lin et al. 1993, 1994; cited from earlier work
[4] = Rattus norvegicus, Neuron, midbrain culture, read-out: DA uptake % of control

O=C(/C=C/c1ccccc1Cl)Nc1ccc(S(=O)(=O)Nc2nccs2)cc1 [Compound A]
reduction of the rate of apoptosis of TH^+ cells (TH^+ cells): about 50% | DA uptake on conjoint treatment with GDNF ([1]; 2.5 μM compound A added to a maximally effective concentration of GDNF): additive effect; also recorded: increased DA uptake above that reached by either GDNF or compound A alone; also recorded: at least as potent as that of forskolin | activity at 2.5 µM [1, 4]: 240% | Emax ([1]; Rattus norvegicus, Neuron, DIV 6, varied between different experiments, read-out: maximal stimulation of DA uptake): 180 to 280% | concentration of maximal effect on DA uptake ([1]; dose-dependent effect, FIG. 32A, 7 DIV): around 2.5 μM | concentration at which the compound was toxic and decreased DA uptake ([1]; midbrain culture): above 10 μM | stimulation of DA uptake (in words) ([1]; midbrain culture, 7 DIV): stimulates dopamine (DA) uptake in a dose-dependent manner | serotonin (5-HT) uptake (serotonergic neurons): does not lead to an increase in GABA or 5-HT uptake; also recorded: Neither GABA (FIG. 33C) nor serotonin (FIG. 33D) uptake was significantly affected | serotonin (5-HT) uptake (serotonergic neurons; listed as CUR-162590): little, if any, effect | GABA uptake (GABA-containing neurons): does not lead to an increase in GABA or 5-HT uptake; also recorded: Neither GABA (FIG. 33C) nor serotonin (FIG. 33D) uptake was significantly affected | GABA uptake (GABA-containing neurons; listed as CUR-162590): little, if any, effect | number of islet-1^+ motoneurons (islet-1^+ motoneurons): 115-150 % of control | GFAP-positive cell numbers (GFAP-positive cells): does not affect GFAP^+ cell number; also recorded: not affected | survival / number of TPH^+ neurons (TPH^+ cells): does not change either the number of TPH^+ cells nor the amount of serotonin uptake in hindbrain cultures; also recorded: did not promote the survival of neurons immunoreactive for the key serotonin-synthesizing enzyme TPH | number of TH positive neurons (dopaminergic neuron survival) (TH-positive neurons; 2.5-5 μM added once at the time of plating, day 7 or day 12): promotes survival of TH^+ neurons; also recorded: about twice as many DA neurons | tyrosine hydroxylase (TH) immunoreactivity (TH-positive neurons; mesencephalic cultures): upregulated | cytotoxicity on the hindbrain culture (inhibition of serotonin uptake) ([2]; 10 μM): showed cytotoxicity on the hindbrain culture | serotonin uptake in hindbrain culture ([2]; DIV 8, concentrations necessary for increasing dopamine uptake in midbrain culture): does not change either the number of TPH^+ cells nor the amount of serotonin uptake in hindbrain cultures; also recorded: nor did it increase serotonin uptake in the hindbrain culture | NSE-positive cell numbers (NSE-positive cells): does not increase total number of NSE^+ cells; also recorded: indistinguishable from the non-treated control wells | loss of TH^+ neurons after MPP^+ (TH^+ neurons): 20%

Cc1nc(NS(=O)(=O)c2ccc(NC(=O)/C=C/c3ccccc3Cl)cc2)sc1C(=O)O [Y′′′]
activity at 10 µM ([1]; Rattus norvegicus, Neuron, compound concentration 10 μM, midbrain culture, read-out: DA uptake % of control): 160%

O=C(/C=C/c1cccc(Cl)c1Cl)Nc1ccc(S(=O)(=O)Nc2nccs2)cc1 [Y′′′′]
activity at 0.6 µM ([1]; Rattus norvegicus, Neuron, compound concentration 0.6 μM, midbrain culture, read-out: DA uptake % of control): 180%

COc1ccccc1/C=C/C(=O)Nc1ccc(S(=O)(=O)Nc2nc[nH]n2)cc1 [Y″]
activity at 2.5 µM [1, 4]: 180%

O=C(/C=C/c1ccccc1F)Nc1ccc(S(=O)(=O)Nc2ccccn2)cc1 [Z′′′]
activity at 2.5 µM [1, 4]: 140%

COc1ccc(/C=C/C(=O)Nc2ccc(S(=O)(=O)Nc3nccs3)cc2)c(OC)c1 [Z′′′′]
activity at 1.25 µM [1, 4]: 170%

O=C(/C=C/c1ccccc1I)Nc1ccc(S(=O)(=O)Nc2nccs2)cc1 [Z″]
activity at 1.25 µM [1, 4]: 300%

B1: GDNF: glial cell line-derived neurotrophic factor (protein, UniProt P39905 78-211, looked up)
Glial cell line-derived …: SPDKQMAVLPRRERNRQAAAANPENSRGKGRRGQRGKNRGCVLTAIHLNVTDLGLGYETKEELIFRYCSGSCDAAETTYDKILKNLSRNRRLVSDKVGQACCRPIAFDDDLSFLDDNLVYHILRKHSAKRCGCI
concentration at which the effect on DA uptake plateaus [3]: around 1 ng/ml
